Laboratory results: ChEMBL document CHEMBL1147596, “Subtype selective NMDA receptor antagonists: evaluation of some novel alkynyl analogues” (Bioorg Med Chem Lett, 2004)
pIC50: −log10 of the molar value. Active and inactive are the calls of the source. The calls are words filed in the database; no cut-off is given here.

Tests used:
Rattus norvegicus [1] = assay: In vivo minimum effective dose for anti-Parkinsonian activity in 6-OHDA rat model upon p.o. administration; Not active.; type: functional
Rattus norvegicus [2] = assay: In vivo minimum effective dose inhibition of neuropathic pain (formalin test) upon p.o. administration; Not active.; type: functional, organism-based
[3] = target: Glutamate NMDA receptor; Grin1/Grin2b (Rattus norvegicus, UniProt P35439+Q00960); assay: Binding affinity against NR1A/2B receptor in rat brains by [3H]ifenprodil displacement.; type: tissue-based, Brain
Rattus norvegicus [4] = assay: Minimum effective dose required to measure anti-parkinson's activity (In vivo) upon p.o. […] in rat; type: functional; conditions: po, read-out: MED
Rattus norvegicus [5] = assay: Minimum effective dose required to measure neuropathic pain (In vivo) by formalin test upon p.o. […] in rat; type: functional; conditions: po, read-out: MED
[6] = Binding affinity against NR1A/2B receptor using [3H]-ifenprodil radioligand in native rat brains; NA means not active

Chain of Glutamate NMDA receptor; Grin1/Grin2b (Q00960 whole entry, other chains not shown): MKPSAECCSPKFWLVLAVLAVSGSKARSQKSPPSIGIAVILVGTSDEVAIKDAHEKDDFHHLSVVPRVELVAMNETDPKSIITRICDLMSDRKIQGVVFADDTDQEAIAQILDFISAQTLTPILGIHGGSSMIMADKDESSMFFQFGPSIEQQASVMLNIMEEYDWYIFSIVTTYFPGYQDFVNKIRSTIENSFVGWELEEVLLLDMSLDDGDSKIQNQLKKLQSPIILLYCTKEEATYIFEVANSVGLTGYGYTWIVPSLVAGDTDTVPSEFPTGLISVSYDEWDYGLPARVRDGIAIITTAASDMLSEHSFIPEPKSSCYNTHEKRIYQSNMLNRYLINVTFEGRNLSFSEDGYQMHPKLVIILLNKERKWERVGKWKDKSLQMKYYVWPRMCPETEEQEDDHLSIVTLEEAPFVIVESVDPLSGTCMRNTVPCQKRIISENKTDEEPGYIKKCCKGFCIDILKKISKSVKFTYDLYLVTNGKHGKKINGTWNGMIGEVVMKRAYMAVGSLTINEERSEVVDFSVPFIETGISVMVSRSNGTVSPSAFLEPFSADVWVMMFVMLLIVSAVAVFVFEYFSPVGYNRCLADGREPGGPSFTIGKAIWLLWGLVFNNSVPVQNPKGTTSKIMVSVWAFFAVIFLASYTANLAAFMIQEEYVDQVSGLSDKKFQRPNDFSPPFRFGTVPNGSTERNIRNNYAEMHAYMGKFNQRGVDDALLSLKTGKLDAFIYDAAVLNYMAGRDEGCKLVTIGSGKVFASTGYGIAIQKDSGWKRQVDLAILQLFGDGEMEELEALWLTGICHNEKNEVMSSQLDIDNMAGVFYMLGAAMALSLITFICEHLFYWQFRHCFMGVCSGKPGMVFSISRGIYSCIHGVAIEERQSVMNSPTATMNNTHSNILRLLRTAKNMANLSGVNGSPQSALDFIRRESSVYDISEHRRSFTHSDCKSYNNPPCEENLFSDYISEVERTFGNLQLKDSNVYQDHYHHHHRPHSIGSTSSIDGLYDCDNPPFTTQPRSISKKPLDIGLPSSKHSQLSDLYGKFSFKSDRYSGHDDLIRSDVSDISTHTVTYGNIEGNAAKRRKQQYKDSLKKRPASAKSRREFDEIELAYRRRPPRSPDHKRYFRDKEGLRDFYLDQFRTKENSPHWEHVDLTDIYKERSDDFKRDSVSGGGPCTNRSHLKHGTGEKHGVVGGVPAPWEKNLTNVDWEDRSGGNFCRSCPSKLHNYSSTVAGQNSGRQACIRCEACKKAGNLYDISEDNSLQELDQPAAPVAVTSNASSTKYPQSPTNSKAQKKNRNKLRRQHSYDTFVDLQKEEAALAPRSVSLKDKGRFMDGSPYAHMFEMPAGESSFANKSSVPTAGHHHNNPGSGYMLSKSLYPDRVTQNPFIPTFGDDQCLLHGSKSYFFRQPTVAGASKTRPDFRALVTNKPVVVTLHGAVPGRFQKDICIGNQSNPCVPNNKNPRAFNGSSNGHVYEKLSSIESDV

Row | Structure (SMILES) | MED (Rattus norvegicus [1]) | MED (Rattus norvegicus [2]) | pIC50 [3] | also measured
1 | Fc1ccc(CC2CCN(CC#Cc3ccc4[nH]c(S)nc4c3)CC2)cc1 | inactive | inactive | – | –
2 | Oc1nc2ccc(C#CCN3CCC(O)(Cc4ccc(F)cc4)CC3)cc2s1 | inactive | inactive | 7.62 | –
3 | CC1CC(Cc2ccc(F)cc2)CC(C)N1CC#Cc1ccc2[nH]c(O)nc2c1 (stereo not drawn) | inactive | inactive | – | –
4 | Cc1cc(C#CCN2CCC(Cc3ccc(F)cc3)CC2)cc2[nH]c(=O)[nH]c12 | – | – | 7.70 | –
5 | COc1cc2[nH]c(=O)[nH]c2cc1C#CCN1CCC(Cc2ccc(F)cc2)CC1 | – | – | 8.05 | –
6 | CC(C#Cc1ccc2[nH]c(O)nc2c1)N1CCC(Cc2ccc(F)cc2)CC1 (stereo not drawn) | inactive | inactive | – | –
7 | Fc1ccc(CC2CCN(CC#Cc3ccc4[nH]c(=S)[nH]c4c3)CC2)cc1 | – | – | 7.72 | –
8 | COc1cc2[nH]c(O)nc2cc1C#CCN1CCC(Cc2ccc(F)cc2)CC1 | inactive | inactive | – | –
9 | CC(C)(C#Cc1ccc2[nH]c(O)nc2c1)N1CCC(Cc2ccc(F)cc2)CC1 | inactive | inactive | – | –
10 | Cc1cc(C#CCN2CCC(Cc3ccc(F)cc3)CC2)cc2[nH]c(O)nc12 | – | inactive | – | minimal effective dose (Rattus norvegicus [4]): 30 mg/kg
11 | O=C1Cc2cc(C#CCN3CCC(Cc4ccc(F)cc4)CC3)ccc2N1 | inactive | inactive | 7.25 | –
12 | Oc1nc2cc(C#CCN3CCC(=Cc4ccc(F)cc4)CC3)ccc2[nH]1 | inactive | inactive | – | –
13 | CC1CC(Cc2ccc(F)cc2)CCN1CC#Cc1ccc2[nH]c(O)nc2c1 (stereo not drawn) | inactive | inactive | – | –
14 | Cc1c(C#CCN2CCC(Cc3ccc(F)cc3)CC2)cc2nc(O)[nH]c2c1C | inactive | inactive | – | –
15 | Oc1nc2cc(C#CCN3CCC(Cc4cccc(F)c4)CC3)ccc2[nH]1 | inactive | inactive | 7.85 | –
16 | Oc1nc2cc(C#CCN3CCC(Cc4ccc(F)cc4)CC3)c[nH]c-2n1 | inactive | inactive | – | –

Row | Structure (SMILES) | MED (Rattus norvegicus [1]) | MED (Rattus norvegicus [2]) | pIC50 [3] | also measured
17 | CC(C#Cc1ccc2[nH]c(=O)[nH]c2c1)N1CCC(Cc2ccc(F)cc2)CC1 (stereo not drawn) | – | – | 7.00 | –
18 | Oc1nc2cc(C#CCN3CCC(Cc4ccc(F)cc4)CC3)ccc2[nH]1 | – | – | – | minimal effective dose (Rattus norvegicus [1]; po, read-out: MED): 10 mg/kg; minimal effective dose (Rattus norvegicus [5]): 10 mg/kg
19 | Cc1cc2[nH]c(O)nc2cc1C#CCN1CCC(Cc2ccc(F)cc2)CC1 | inactive | inactive | – | –
20 | Oc1nc2cc(C#CCN3CCC(CCc4ccc(F)cc4)CC3)ccc2[nH]1 | inactive | inactive | – | –
21 | O=c1[nH]c2cccc(C#CCN3CCC(Cc4ccc(F)cc4)CC3)c2[nH]1 | – | – | 6.55 | –
22 | Oc1nc2ccc(C#CCN3CCC(Cc4ccc(F)cc4)CC3)cc2o1 | inactive | – | – | minimal effective dose (Rattus norvegicus [5]): 30 mg/kg
23 | CC1CC(Cc2ccc(F)cc2)CC(C)N1CC#Cc1ccc2[nH]c(=O)[nH]c2c1 (stereo not drawn) | – | – | 6.80 | –
24 | Oc1nc2ccc(C#CCN3CCC(O)(Cc4ccc(F)cc4)CC3)cc2o1 | inactive | – | – | minimal effective dose (Rattus norvegicus [5]): 30 mg/kg
25 | CC1CC(Cc2ccc(F)cc2)CCN1CC#Cc1ccc2[nH]c(=O)[nH]c2c1 (stereo not drawn) | – | – | 6.98 | –
26 | Oc1nc2c(C#CCN3CCC(Cc4ccc(F)cc4)CC3)cccc2[nH]1 | inactive | inactive | – | –
27 | O=c1[nH]c2ccc(C#CCN3CCC(=Cc4ccc(F)cc4)CC3)cc2[nH]1 | – | – | 6.85 | –
28 | Oc1nc2cc(C#CCN3CCC(O)(Cc4ccc(F)cc4)CC3)ccc2[nH]1 | inactive | inactive | 7.68 | –
29 | Cc1cc2[nH]c(=O)[nH]c2cc1C#CCN1CCC(Cc2ccc(F)cc2)CC1 | – | – | 8.40 | –
30 | CC(C)(C#Cc1ccc2[nH]c(=O)[nH]c2c1)N1CCC(Cc2ccc(F)cc2)CC1 | – | – | < 6.00 | –
31 | Oc1nc2c(C(F)(F)F)cc(C#CCN3CCC(Cc4ccc(F)cc4)CC3)cc2[nH]1 | inactive | inactive | – | IC50 [6]: Not Active
32 | O=c1[nH]c2cc(C#CCN3CCC(Cc4ccc(F)cc4)CC3)cnc2[nH]1 | – | – | 8.70 | –
